Experiments:
[1] = system: barnyardgrass (Echinochloa crus-galli); test: Test A preemergence, visual injury rating 0-100 (0 no effect, 100 complete control); type: in vivo; conditions: for Barnyardgrass plant response rating (0 to 100 scale): 125 g ai/ha; for Barnyardgrass plant response rating: 500 g ai/ha, 0 to 100 scale
Excerpt: (§1) Seeds of plant species selected from barnyardgrass (Echinochloa crus-galli), kochia (Kochia scoparia), ragweed (common ragweed, Ambrosia elatior), ryegrass, Italian (Italian ryegrass, Lolium multiflorum), foxtail, giant (giant foxtail, Setaria faberii), foxtail, green (green foxtail, Setaria viridis), and pigweed (Amaranthus retroflexus) were planted into a blend of loam soil and sand and treated preemergence with a directed soil spray using test chemicals formulated in a non-phytotoxic solvent mixture which included a surfactant.
(§2) At the same time, plants selected from these weed species and also wheat (Triticum aestivum), corn (Zea mays), blackgrass (Alopecurus myosuroides), and galium (catchweed bedstraw, Galium aparine) were planted in pots containing the same blend of loam soil and sand and treated with postemergence applications of test chemicals formulated in the same manner. Plants ranged in height from 2 to 10 cm and were in the one- to two-leaf stage for the postemergence treatment. Treated plants and untreated controls were maintained in a greenhouse for approximately 10 days, after which time all treated plants were compared to untreated controls and visually evaluated for injury. […] A dash (-) response means no test result.

[2] = system: foxtail, giant (giant foxtail, Setaria faberii); test: Test A preemergence, visual injury rating 0-100; type: in vivo; conditions: for Foxtail, Giant plant response rating (0 to 100 scale): 125 g ai/ha; for Foxtail, Giant plant response rating: 500 g ai/ha, 0 to 100 scale
Excerpt: as §1, §2

[3] = system: kochia (Kochia scoparia); test: Test A preemergence, visual injury rating 0-100; type: in vivo; conditions: for Kochia plant response rating (0 to 100 scale): 125 g ai/ha; for Kochia plant response rating: 500 g ai/ha, 0 to 100 scale
Excerpt: as §1, §2

[4] = system: pigweed (Amaranthus retroflexus); test: Test A preemergence, visual injury rating 0-100; type: in vivo; conditions: for Pigweed plant response rating (0 to 100 scale): 125 g ai/ha; for Pigweed plant response rating: 500 g ai/ha, 0 to 100 scale
Excerpt: as §1, §2

[5] = system: ragweed (common ragweed, Ambrosia elatior); test: Test A preemergence, visual injury rating 0-100; type: in vivo; conditions: for Ragweed plant response rating (0 to 100 scale): 125 g ai/ha; for Ragweed plant response rating: 500 g ai/ha, 0 to 100 scale
Excerpt: as §1, §2

[6] = system: ryegrass, Italian (Italian ryegrass, Lolium multiflorum); test: Test A preemergence, visual injury rating 0-100; type: in vivo; conditions: for Ryegrass, Italian plant response rating (0 to 100 scale): 125 g ai/ha; for Ryegrass, Italian plant response rating: 500 g ai/ha, 0 to 100 scale
Excerpt: as §1, §2

[7] = system: barnyardgrass (Echinochloa crus-galli); test: Test A postemergence, visual injury rating 0-100; type: in vivo; conditions: 0 to 100 scale
Excerpt: as §1, §2

[8] = system: blackgrass (Alopecurus myosuroides); test: Test A postemergence, visual injury rating 0-100; type: in vivo; conditions: 0 to 100 scale
Excerpt: as §1, §2

[9] = system: corn (Zea mays); test: Test A postemergence, visual injury rating 0-100; type: in vivo; conditions: 0 to 100 scale
Excerpt: as §1, §2

[10] = system: foxtail, giant (giant foxtail, Setaria faberii); test: Test A postemergence, visual injury rating 0-100; type: in vivo; conditions: 0 to 100 scale
Excerpt: as §1, §2

[11] = system: galium (catchweed bedstraw, Galium aparine); test: Test A postemergence, visual injury rating 0-100; type: in vivo; conditions: 0 to 100 scale
Excerpt: as §1, §2

[12] = system: kochia (Kochia scoparia); test: Test A postemergence, visual injury rating 0-100; type: in vivo; conditions: 0 to 100 scale
Excerpt: as §1, §2

[13] = system: pigweed (Amaranthus retroflexus); test: Test A postemergence, visual injury rating 0-100; type: in vivo; conditions: 0 to 100 scale
Excerpt: as §1, §2

[14] = system: ragweed (common ragweed, Ambrosia elatior); test: Test A postemergence, visual injury rating 0-100; type: in vivo; conditions: 0 to 100 scale
Excerpt: as §1, §2

[15] = system: ryegrass, Italian (Italian ryegrass, Lolium multiflorum); test: Test A postemergence, visual injury rating 0-100; type: in vivo; conditions: 0 to 100 scale
Excerpt: as §1, §2

[16] = system: wheat (Triticum aestivum); test: Test A postemergence, visual injury rating 0-100; type: in vivo; conditions: 0 to 100 scale
Excerpt: as §1, §2

[17] = system: ducksalad (Heteranthera limosa); test: Test B flooded paddy test, visual rating 0-100; conditions: Flood, 250 g ai/ha, applied to paddy water, rated after 13 to 15 days
[18] = system: barnyardgrass (Echinochloa crus-galli); test: Test B flooded paddy test, visual rating 0-100; conditions: Flood, 250 g ai/ha, applied to paddy water, rated after 13 to 15 days
[19] = system: rice (Oryza sativa); test: Test B flooded paddy test, visual rating 0-100 (0 no effect, 100 complete control); conditions: Flood, 250 g ai/ha, applied to paddy water, rated after 13 to 15 days

Compound	Barnyardgrass plant response rating (0 to 100 scale) [1]	Barnyardgrass plant response rating [1]	Foxtail, Giant plant response rating (0 to 100 scale) [2]	Foxtail, Giant plant response rating [2]	Kochia plant response rating (0 to 100 scale) [3]	Kochia plant response rating [3]	Pigweed plant response rating (0 to 100 scale) [4]	Pigweed plant response rating [4]	Ragweed plant response rating (0 to 100 scale) [5]	Ragweed plant response rating [5]	Ryegrass, Italian plant response rating (0 to 100 scale) [6]	Ryegrass, Italian plant response rating [6]	Barnyardgrass plant response rating ([7]; 125 g ai/ha)	Barnyardgrass plant response rating ([7]; 500 g ai/ha)	Blackgrass plant response rating ([8]; 125 g ai/ha)	Blackgrass plant response rating ([8]; 500 g ai/ha)	Corn plant response rating ([9]; 125 g ai/ha)	Corn plant response rating ([9]; 500 g ai/ha)	Foxtail, Giant plant response rating ([10]; 125 g ai/ha)	Foxtail, Giant plant response rating ([10]; 500 g ai/ha)	other results
CC1=[N+]([O-])C(C)(C(=O)Nc2cccc(F)c2F)C(c2ccc(C(F)(F)F)cc2)C1 (racemic) [Compound 1]	90	100	100	100	70	90	20	80	0	30	0	60	70	90	20	70	0	70	0	80	Galium plant response rating ([11]; 125 g ai/ha): 80; Galium plant response rating ([11]; 500 g ai/ha): 80; Kochia plant response rating ([12]; 125 g ai/ha): 0; Kochia plant response rating ([12]; 500 g ai/ha): 70; Pigweed plant response rating ([13]; 125 g ai/ha): 20; Pigweed plant response rating ([13]; 500 g ai/ha): 60; Ragweed plant response rating ([14]; 125 g ai/ha): 0; Ragweed plant response rating ([14]; 500 g ai/ha): 30; Ryegrass, Italian plant response rating ([15]; 125 g ai/ha): 0; Ryegrass, Italian plant response rating ([15]; 500 g ai/ha): 20; Wheat plant response rating ([16]; 125 g ai/ha): 30; Wheat plant response rating ([16]; 500 g ai/ha): 70; Ducksalad plant response rating (0 to 100 scale) [17]: 70; Barnyardgrass plant response rating (0 to 100 scale) [18]: 70; Rice plant response rating (0 to 100 scale) [19]: 50
CC1=[N+]([O-])C(C(=O)Nc2cccc(F)c2F)C(c2cccc(Cl)c2)C1 (racemic) [Compound 3]	100	100	100	100	30	90	20	70	30	70	20	50	80	90	30	80	40	90	80	90	Galium plant response rating ([11]; 125 g ai/ha): 60; Galium plant response rating ([11]; 500 g ai/ha): 70; Kochia plant response rating ([12]; 125 g ai/ha): 20; Kochia plant response rating ([12]; 500 g ai/ha): 60; Pigweed plant response rating ([13]; 125 g ai/ha): 0; Pigweed plant response rating ([13]; 500 g ai/ha): 20; Ragweed plant response rating ([14]; 500 g ai/ha): 50; Ryegrass, Italian plant response rating ([15]; 125 g ai/ha): 0; Ryegrass, Italian plant response rating ([15]; 500 g ai/ha): 70; Wheat plant response rating ([16]; 125 g ai/ha): 30; Wheat plant response rating ([16]; 500 g ai/ha): 80; Ducksalad plant response rating (0 to 100 scale) [17]: 100; Barnyardgrass plant response rating (0 to 100 scale) [18]: 80; Rice plant response rating (0 to 100 scale) [19]: 0
CC1=[N+]([O-])C(C(=O)Nc2cccc(F)c2F)C(c2ccc3c(c2)OCO3)C1 (racemic) [Compound 4]	100	100	100	100	0	80	20	90	0	100	0	20	50	90	0	20	0	60	40	90	Galium plant response rating ([11]; 125 g ai/ha): 30; Galium plant response rating ([11]; 500 g ai/ha): 60; Kochia plant response rating ([12]; 125 g ai/ha): 0; Kochia plant response rating ([12]; 500 g ai/ha): 50; Pigweed plant response rating ([13]; 125 g ai/ha): 0; Pigweed plant response rating ([13]; 500 g ai/ha): 20; Ragweed plant response rating ([14]; 125 g ai/ha): 0; Ragweed plant response rating ([14]; 500 g ai/ha): 50; Ryegrass, Italian plant response rating ([15]; 125 g ai/ha): 0; Ryegrass, Italian plant response rating ([15]; 500 g ai/ha): 40; Wheat plant response rating ([16]; 125 g ai/ha): 0; Wheat plant response rating ([16]; 500 g ai/ha): 60; Ducksalad plant response rating (0 to 100 scale) [17]: 40; Barnyardgrass plant response rating (0 to 100 scale) [18]: 60; Rice plant response rating (0 to 100 scale) [19]: 10
CC1=[N+]([O-])C(C(=O)Nc2cccc(F)c2F)C(c2cccc(F)c2)C1 (racemic) [Compound 8]	90	90	90	90	0	50	20	40	0	80	0	40	50	90	0	30	0	0	90	90	Galium plant response rating ([11]; 125 g ai/ha): 20; Galium plant response rating ([11]; 500 g ai/ha): 60; Kochia plant response rating ([12]; 125 g ai/ha): 0; Kochia plant response rating ([12]; 500 g ai/ha): 40; Pigweed plant response rating ([13]; 125 g ai/ha): 0; Pigweed plant response rating ([13]; 500 g ai/ha): 20; Ragweed plant response rating ([14]; 125 g ai/ha): 0; Ragweed plant response rating ([14]; 500 g ai/ha): 0; Ryegrass, Italian plant response rating ([15]; 125 g ai/ha): 0; Ryegrass, Italian plant response rating ([15]; 500 g ai/ha): 50; Wheat plant response rating ([16]; 125 g ai/ha): 0; Wheat plant response rating ([16]; 500 g ai/ha): 50; Ducksalad plant response rating (0 to 100 scale) [17]: 100; Barnyardgrass plant response rating (0 to 100 scale) [18]: 85; Rice plant response rating (0 to 100 scale) [19]: 0
